Assay results taken from PubChem BioAssay AID1918945 (Molecular Pharmacology Branch, DTP, NCI, 2023).
pIC50: −log10 of the molar value.

Tested on: 883617-216-R-J1-PDC complex spheroid viability
Test: Anticancer human tumor 883617-216-R-J1-PDC patient-derived bladder carcinoma cell line growth inhibition
Conditions: for pIC50: curve of first compound; for viability, T/C: stronger effect = lower value
Outline: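 Multicellular complex spheroids of tumor cells with human endothelial cells (HUVEC) and mesenchymal stem cells; the LSD1 inhibitor iadademstat was combined with standard-of-care or investigational agents. Top concentration at or near clinical Cmax, half-log dilutions; final DMSO ≤0.25%.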

[1] = second compound 0.1 µM, first compound 0.00949 µM
[2] = second compound 0.1 µM, first compound 0.03 µM
[3] = second compound 0.1 µM, first compound 0.0949 µM
[4] = second compound 0.1 µM, first compound 0.3 µM
[5] = second compound 0.1 µM, first compound 0.949 µM
[6] = second compound 0.1 µM, first compound 3 µM
[7] = second compound 0.316 µM, first compound 0.00949 µM
[8] = second compound 0.316 µM, first compound 0.03 µM
[9] = second compound 0.316 µM, first compound 0.0949 µM
[10] = second compound 0.316 µM, first compound 0.3 µM
[11] = second compound 0.316 µM, first compound 0.949 µM
[12] = second compound 0.316 µM, first compound 3 µM
[13] = second compound 1 µM, first compound 0.00949 µM
[14] = second compound 1 µM, first compound 0.03 µM
[15] = second compound 1 µM, first compound 0.0949 µM
[16] = second compound 1 µM, first compound 0.3 µM
[17] = second compound 1 µM, first compound 0.949 µM
[18] = second compound 1 µM, first compound 3 µM
[19] = second compound 3.16 µM, first compound 0.00949 µM
[20] = second compound 3.16 µM, first compound 0.03 µM
[21] = second compound 3.16 µM, first compound 0.0949 µM
[22] = second compound 3.16 µM, first compound 0.3 µM
[23] = second compound 3.16 µM, first compound 0.949 µM
[24] = second compound 3.16 µM, first compound 3 µM
[25] = second compound 10 µM, first compound 0.00949 µM
[26] = second compound 10 µM, first compound 0.03 µM
[27] = second compound 10 µM, first compound 0.0949 µM
[28] = second compound 10 µM, first compound 0.3 µM
[29] = second compound 10 µM, first compound 0.949 µM
[30] = second compound 10 µM, first compound 3 µM
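Also: exposure lasted seven days after three days of spheroid growth.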
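For viability, T/C in this document: 100% = DMSO vehicle control luminescence.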

## Cn1ncnc1C1c2n[nH]c(=O)c3cc(F)cc(c23)NC1c1ccc(F)cc1 (stereo not given) + NC1CCC(NC2CC2c2ccccc2)CC1
Second compound 0.1 µM
  pIC50: < 7.00
Second compound 0.316 µM
  pIC50: < 7.00
Second compound 1 µM
  pIC50: < 7.00
Second compound 3.16 µM
  pIC50: < 7.00
Second compound 10 µM
  pIC50: < 7.00
Second compound 0.1 µM, first compound 0.000316 µM
  viability, T/C: 110%
Second compound 0.1 µM, first compound 0.001 µM
  viability, T/C: 110%
Second compound 0.1 µM, first compound 0.00316 µM
  viability, T/C: 103%
Second compound 0.1 µM, first compound 0.01 µM
  viability, T/C: 91.6%
Second compound 0.1 µM, first compound 0.0316 µM
  viability, T/C: 68.5%
Second compound 0.1 µM, first compound 0.1 µM
  viability, T/C: 66.6%
Second compound 0.316 µM, first compound 0.000316 µM
  viability, T/C: 113%
Second compound 0.316 µM, first compound 0.001 µM
  viability, T/C: 111%
Second compound 0.316 µM, first compound 0.00316 µM
  viability, T/C: 97.6%
Second compound 0.316 µM, first compound 0.01 µM
  viability, T/C: 89.7%
Second compound 0.316 µM, first compound 0.0316 µM
  viability, T/C: 72.7%
Second compound 0.316 µM, first compound 0.1 µM
  viability, T/C: 60%
Second compound 1 µM, first compound 0.000316 µM
  viability, T/C: 112%
Second compound 1 µM, first compound 0.001 µM
  viability, T/C: 113%
Second compound 1 µM, first compound 0.00316 µM
  viability, T/C: 99.2%
Second compound 1 µM, first compound 0.01 µM
  viability, T/C: 93.9%
Second compound 1 µM, first compound 0.0316 µM
  viability, T/C: 67.3%
Second compound 1 µM, first compound 0.1 µM
  viability, T/C: 57.7%
Second compound 3.16 µM, first compound 0.000316 µM
  viability, T/C: 101%
Second compound 3.16 µM, first compound 0.001 µM
  viability, T/C: 102%
Second compound 3.16 µM, first compound 0.00316 µM
  viability, T/C: 99.2%
Second compound 3.16 µM, first compound 0.01 µM
  viability, T/C: 85.2%
Second compound 3.16 µM, first compound 0.0316 µM
  viability, T/C: 69.2%
Second compound 3.16 µM, first compound 0.1 µM
  viability, T/C: 69.7%
Second compound 10 µM, first compound 0.000316 µM
  viability, T/C: 107%
Second compound 10 µM, first compound 0.001 µM
  viability, T/C: 106%
Second compound 10 µM, first compound 0.00316 µM
  viability, T/C: 108%
Second compound 10 µM, first compound 0.01 µM
  viability, T/C: 90.6%
Second compound 10 µM, first compound 0.0316 µM
  viability, T/C: 72.8%
Second compound 10 µM, first compound 0.1 µM
  viability, T/C: 66.2%

## NS(=O)(=O)OCC1CC(n2ccc3c(NC4CCc5ccccc54)ncnc32)CC1O (stereo not given) + NC1CCC(NC2CC2c2ccccc2)CC1
Second compound 0.1 µM
  pIC50: 6.40
Second compound 0.316 µM
  pIC50: 6.30
Second compound 1 µM
  pIC50: 6.34
Second compound 3.16 µM
  pIC50: 6.30
Second compound 10 µM
  pIC50: 6.41
[1]
  viability, T/C: 111%
[2]
  viability, T/C: 121%
[3]
  viability, T/C: 106%
[4]
  viability, T/C: 59.8%
[5]
  viability, T/C: 20.7%
[6]
  viability, T/C: 15.2%
[7]
  viability, T/C: 118%
[8]
  viability, T/C: 113%
[9]
  viability, T/C: 113%
[10]
  viability, T/C: 73.8%
[11]
  viability, T/C: 19.4%
[12]
  viability, T/C: 15.6%
[13]
  viability, T/C: 102%
[14]
  viability, T/C: 116%
[15]
  viability, T/C: 105%
[16]
  viability, T/C: 67%
[17]
  viability, T/C: 19.5%
[18]
  viability, T/C: 14%
[19]
  viability, T/C: 101%
[20]
  viability, T/C: 106%
[21]
  viability, T/C: 99.5%
[22]
  viability, T/C: 73.8%
[23]
  viability, T/C: 20.2%
[24]
  viability, T/C: 13.7%
[25]
  viability, T/C: 113%
[26]
  viability, T/C: 117%
[27]
  viability, T/C: 107%
[28]
  viability, T/C: 58.9%
[29]
  viability, T/C: 20.8%
[30]
  viability, T/C: 14.6%

## O=C(C=Cc1cccc(S(=O)(=O)Nc2ccccc2)c1)NO + NC1CCC(NC2CC2c2ccccc2)CC1
Second compound 0.1 µM
  pIC50: 6.85
Second compound 0.316 µM
  pIC50: 6.88
Second compound 1 µM
  pIC50: 6.86
Second compound 3.16 µM
  pIC50: 6.86
Second compound 10 µM
  pIC50: 6.91
[1]
  viability, T/C: 102%
[2]
  viability, T/C: 92.8%
[3]
  viability, T/C: 55.3%
[4]
  viability, T/C: 31.2%
[5]
  viability, T/C: 20.7%
[6]
  viability, T/C: 2.88%
[7]
  viability, T/C: 108%
[8]
  viability, T/C: 98.6%
[9]
  viability, T/C: 50%
[10]
  viability, T/C: 31.7%
[11]
  viability, T/C: 20.9%
[12]
  viability, T/C: 2.02%
[13]
  viability, T/C: 95.7%
[14]
  viability, T/C: 84.3%
[15]
  viability, T/C: 57.4%
[16]
  viability, T/C: 30.8%
[17]
  viability, T/C: 18.9%
[18]
  viability, T/C: 2.72%
[19]
  viability, T/C: 101%
[20]
  viability, T/C: 84.2%
[21]
  viability, T/C: 55.7%
[22]
  viability, T/C: 34.2%
[23]
  viability, T/C: 17.8%
[24]
  viability, T/C: 2.63%
[25]
  viability, T/C: 99.5%
[26]
  viability, T/C: 76.4%
[27]
  viability, T/C: 55.3%
[28]
  viability, T/C: 32.6%
[29]
  viability, T/C: 19.6%
[30]
  viability, T/C: 1.64%
